Article PMC9358681 (Biochemical pharmacology, 2022)
“And” between values parts separate entries of the source, which are not always exact repeats. Identical values can stand only once. Like-named read-outs stand apart in the source and are kept apart here.

Columns and labels:
human A2BAR [1] = biological target: T1, human A2BAR (Homo sapiens, UniProt P29275); assay: [3H]PSB-603 displacement on CHO-spap-hA2BAR membranes; type: binding
T1 construct: host or cells: CHO-spap
T1 sequence (P29275 1-332): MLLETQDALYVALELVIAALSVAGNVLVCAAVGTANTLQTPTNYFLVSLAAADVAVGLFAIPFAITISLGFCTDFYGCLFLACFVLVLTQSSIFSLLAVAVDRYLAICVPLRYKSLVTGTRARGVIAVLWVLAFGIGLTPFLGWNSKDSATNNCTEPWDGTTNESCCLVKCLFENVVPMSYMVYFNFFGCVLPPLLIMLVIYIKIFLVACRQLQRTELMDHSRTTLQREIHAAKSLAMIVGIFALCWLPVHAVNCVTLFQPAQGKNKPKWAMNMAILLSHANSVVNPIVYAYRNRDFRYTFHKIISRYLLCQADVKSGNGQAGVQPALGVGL

human A2BAR [2] = biological target: T1, human A2BAR; assay: [3H]PSB-603 competition association assay; type: binding; settings: for RT: RT = 1/koff, competing ligand at 1.0-fold IC50, up to 3 hr; for Kd: read-out: Kinetic KD (koff/kon)
Method: In all radioligand binding experiments, CHO-spap-hA2BAR membranes were thawed and homogenized using an Ultra Turrax homogenizer at 24,000 rpm (IKA-Werke GmbH & Co.KG, Staufen, Germany), diluted in assay buffer to the desired concentration (10–30 μg per well or Eppendorf tube). All materials were brought to 25 °C, 30 min prior to the experiment. ZM241385 (10 μM) was used to determine nonspecific binding (NSB).
Addition of CHO-spap-hA2BAR membrane aliquots initiated the association. The amount of receptor-bound radioligand was determined at different time points up to 3 hr. After 3 hr the incubation was terminated and samples were obtained as described under “Displacement experiments”.
All competition association data were globally fitted.

A1 adenosine receptor [3] = biological target: T2, A1 adenosine receptor (Homo sapiens, UniProt P30542); assay: Radioligand binding, human A1 ([3H]R-PIA, HEK-293); settings: HEK-293, [3H]R-PIA
T2 sequence (P30542 1-326): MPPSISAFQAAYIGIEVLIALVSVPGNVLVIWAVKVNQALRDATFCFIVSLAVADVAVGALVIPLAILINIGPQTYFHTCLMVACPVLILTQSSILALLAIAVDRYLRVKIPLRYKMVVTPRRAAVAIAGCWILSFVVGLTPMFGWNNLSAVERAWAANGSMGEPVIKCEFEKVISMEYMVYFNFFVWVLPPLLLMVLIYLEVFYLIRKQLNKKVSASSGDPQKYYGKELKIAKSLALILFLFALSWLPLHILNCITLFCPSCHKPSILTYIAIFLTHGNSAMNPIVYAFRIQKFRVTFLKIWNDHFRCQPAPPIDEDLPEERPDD
From the text: (§1) The A2B receptor selectivity was generally low, especially at the rat A2B receptor.

A1 adenosine receptor [4] = biological target: T3, A1 adenosine receptor (Rattus norvegicus, UniProt P25099); assay: Radioligand binding, rat A1 ([3H]R-PIA, HEK-293); settings: HEK-293, [3H]R-PIA
T3 sequence (P25099 1-326): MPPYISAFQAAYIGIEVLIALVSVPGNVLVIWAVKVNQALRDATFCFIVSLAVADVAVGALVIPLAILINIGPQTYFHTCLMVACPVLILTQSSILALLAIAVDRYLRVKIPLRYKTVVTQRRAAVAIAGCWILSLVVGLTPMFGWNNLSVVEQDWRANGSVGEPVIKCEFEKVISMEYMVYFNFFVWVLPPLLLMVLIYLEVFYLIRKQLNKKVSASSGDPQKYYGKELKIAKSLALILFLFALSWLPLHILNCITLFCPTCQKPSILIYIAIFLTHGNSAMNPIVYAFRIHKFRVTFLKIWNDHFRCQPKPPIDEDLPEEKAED
From the text: as §1

A2A adenosine receptor [5] = biological target: A2A adenosine receptor (Homo sapiens, UniProt P29274); assay: Radioligand binding, human A2A ([3H]CGS21680, HEK-293); settings: HEK-293, [3H]CGS21680
A2A adenosine receptor [6] = biological target: A2A adenosine receptor (Rattus norvegicus, UniProt P30543); assay: Radioligand binding, rat A2A ([3H]CGS21680, HEK-293); settings: rat (r), HEK-293, [3H]CGS21680
A2B adenosine receptor [7] = biological target: T4, A2B adenosine receptor (Homo sapiens, UniProt P29275); assay: Radioligand binding, human A2B ([125I]I-ABOPX, HEK-293); settings: HEK-293, [125I]I-ABOPX
T4 sequence (P29275 1-332): T1 sequence (P29275 1-332)

A2B adenosine receptor [8] = biological target: T5, A2B adenosine receptor (Rattus norvegicus, UniProt P29276); assay: Radioligand binding, rat A2B ([125I]I-ABOPX, HEK-293); settings: rat (r), HEK-293, [125I]I-ABOPX
T5 sequence (P29276 1-332): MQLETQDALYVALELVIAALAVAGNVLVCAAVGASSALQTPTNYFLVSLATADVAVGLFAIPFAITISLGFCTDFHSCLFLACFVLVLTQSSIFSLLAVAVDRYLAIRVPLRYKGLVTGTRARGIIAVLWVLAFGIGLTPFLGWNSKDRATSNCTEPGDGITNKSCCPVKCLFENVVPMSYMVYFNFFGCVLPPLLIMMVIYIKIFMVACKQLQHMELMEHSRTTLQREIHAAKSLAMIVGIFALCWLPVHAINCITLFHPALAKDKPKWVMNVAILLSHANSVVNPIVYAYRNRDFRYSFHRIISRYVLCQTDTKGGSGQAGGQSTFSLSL

A3 adenosine receptor = biological target: T6, A3 adenosine receptor (Homo sapiens, UniProt P0DMS8); assay: Radioligand binding, human A3 ([125I]I-AB-MECA, HEK-293); settings: HEK-293, [125I]I-AB-MECA
T6 sequence (P0DMS8 1-318): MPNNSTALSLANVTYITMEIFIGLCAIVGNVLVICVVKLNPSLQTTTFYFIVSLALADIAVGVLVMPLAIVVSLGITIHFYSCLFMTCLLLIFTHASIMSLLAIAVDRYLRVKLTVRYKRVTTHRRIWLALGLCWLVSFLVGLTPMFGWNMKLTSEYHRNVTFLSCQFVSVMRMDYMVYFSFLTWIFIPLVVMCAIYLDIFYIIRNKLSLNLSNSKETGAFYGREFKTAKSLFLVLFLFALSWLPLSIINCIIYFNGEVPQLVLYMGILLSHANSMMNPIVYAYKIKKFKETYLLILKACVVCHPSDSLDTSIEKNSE
From the text: as §1

[9] = […] [3H]PSB-603, 2 h, 25 °C, read-out: Ki (converted)
[10] = […] [3H]PSB-603, 2 h, 25 °C, read-out: pKi (converted)

Chain of A2A adenosine receptor (Homo sapiens, UniProt P29274) (P29274 whole entry): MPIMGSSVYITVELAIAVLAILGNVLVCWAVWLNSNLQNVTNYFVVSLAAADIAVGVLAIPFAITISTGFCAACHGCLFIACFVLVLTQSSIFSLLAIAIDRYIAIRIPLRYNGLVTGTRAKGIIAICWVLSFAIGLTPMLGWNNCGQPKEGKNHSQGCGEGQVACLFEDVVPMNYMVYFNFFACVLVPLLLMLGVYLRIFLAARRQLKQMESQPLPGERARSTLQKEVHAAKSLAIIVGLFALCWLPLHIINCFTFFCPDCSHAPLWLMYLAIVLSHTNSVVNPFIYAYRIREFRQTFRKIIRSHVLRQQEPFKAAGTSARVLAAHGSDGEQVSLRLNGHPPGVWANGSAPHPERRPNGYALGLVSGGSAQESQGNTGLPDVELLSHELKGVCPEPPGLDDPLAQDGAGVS
Chain of A2A adenosine receptor (Rattus norvegicus, UniProt P30543) (P30543 whole entry): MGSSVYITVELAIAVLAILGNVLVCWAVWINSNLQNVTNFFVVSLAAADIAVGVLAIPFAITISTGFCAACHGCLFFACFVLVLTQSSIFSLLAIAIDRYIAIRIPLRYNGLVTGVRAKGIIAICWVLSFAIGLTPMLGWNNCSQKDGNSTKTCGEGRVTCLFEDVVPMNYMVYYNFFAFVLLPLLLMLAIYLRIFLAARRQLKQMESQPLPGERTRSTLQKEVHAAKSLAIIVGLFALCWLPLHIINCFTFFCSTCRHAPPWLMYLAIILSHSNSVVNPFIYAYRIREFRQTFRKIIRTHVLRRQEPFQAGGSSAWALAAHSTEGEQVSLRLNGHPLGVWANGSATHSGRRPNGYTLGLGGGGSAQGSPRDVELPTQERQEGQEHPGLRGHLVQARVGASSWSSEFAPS

Row | Molecule | Ki (human A2BAR [1]; [9]) [nM] | RT (human A2BAR [2]; 25 °C) | Kd (human A2BAR [2]) [nM] | koff (human A2BAR [2]; read-out: koff (converted)) [s⁻¹] | kon (human A2BAR [2]; read-out: kon (converted)) [M⁻¹ s⁻¹] | Ki (A1 adenosine receptor [4]) [nM] | Ki (A2A adenosine receptor [6]) [nM] | also measured
1 | CCCn1c(=O)c2[nH]c(-c3ccc(OCC(=O)N[C@H](C)c4ccccc4)cc3)nc2n(CCC)c1=O [Compound 24, (R)-2-(4-(2,6-dioxo-1,3-dipropyl-2,3,6,7-tetrahydro-1H-purin-8-yl)phenoxy)-N-(1-phenylethyl)acetamide] | 15.2 | 6.1 ± 1.6 min | 7.5 ± 3.9 | 0.00273 | 367000 | 5.23 | 375 | Ki (A1 adenosine receptor [3]): 27.3 ± 4.9 nM; Ki (A2A adenosine receptor [5]): 64.4 ± 21.2 nM; Ki (A2B adenosine receptor [7]): 8.5 ± 1.1 nM; Ki (A2B adenosine receptor [8]): 21.1 nM; Ki (A3 adenosine receptor): 63.9 ± 16.5 nM
2 | CCCn1c(=O)c2[nH]c(-c3ccc(OCC(=O)Nc4ccc([N+](=O)[O-])cc4)cc3)nc2n(CCC)c1=O [Compound 14] | 13.5 | 58 min and 58 ± 19 min | 12 ± 4.9 | 0.000283 | 23300 |  |  | 
3 | CCCn1c(=O)c2[nH]c(-c3ccc(OCC(=O)NC4CCCCC4)cc3)nc2n(CCC)c1=O [Compound 7, N-cyclohexyl-2-(4-(2,6-dioxo-1,3-dipropyl-2,3,6,7-tetrahydro-1H-purin-8-yl)phenoxy)acetamide] | 951 |  |  |  |  | 23 ± 4.1 | 19.3 ± 6.7 | Ki (A2B adenosine receptor [8]): 73.5 ± 25.8 nM
4 | CCCn1c(=O)c2[nH]c(-c3ccc(OCC(=O)Nc4ccccc4)cc3)nc2n(CCC)c1=O [Compound 8] | 1.93 | 46 min and 46 ± 13 min |  | 0.000367 | 250000 |  |  | 
5 | CCCn1c(=O)c2[nH]c(-c3ccc(OCC(=O)Nc4ccc(C#N)cc4)cc3)nc2n(CCC)c1=O [Compound 13] |  | 69 min and 69 ± 2.4 min |  |  |  |  |  | 
6 | CCCn1c(=O)c2[nH]c(-c3ccc(OCC(=O)NC4CCC4)cc3)nc2n(CCC)c1=O [Compound 4, N-cyclobutyl-2-(4-(2,6-dioxo-1,3-dipropyl-2,3,6,7-tetrahydro-1H-purin-8-yl)phenoxy)acetamide] | 61400 |  |  |  |  |  |  | Ki (human A2BAR [1]; […] [3H]PSB-603, 2 h, 25 °C, read-out: affinity (Ki)): 61400 nM
7 | 2-(4-(2,6-dioxo-1,3-dipropyl-2,3,6,7-tetrahydro-1H-purin-8-yl) phenoxy)-N-(pyridin-4-ylmethyl)acetamide [Compound 9] | 1350 |  |  |  |  |  |  | pKi (human A2BAR [1]; […] [3H]PSB-603, 2 h, 25 °C): 5.87 ± 0.16
8 | CCCn1c(=O)c2[nH]c(-c3ccc(OCC(=O)NC(c4ccccc4)c4ccccc4)cc3)nc2n(CCC)c1=O [Compound 26] | 37.9 | 19 ± 6.2 min | 31 ± 16 | 0.000883 | 28300 |  |  | 
9 | CCCn1c(=O)c2[nH]c(-c3ccc(OCC(=O)Nc4ccc(C)cc4)cc3)nc2n(CCC)c1=O [Compound 12] | 3.42 | 55 ± 25 min | 2.7 ± 1.5 | 0.0003 | 117000 |  |  | 
10 | CCCn1c(=O)c2[nH]c(-c3ccc(OCC(=O)NCc4ccc(O)c(O)c4)cc3)nc2n(CCC)c1=O [Compound 23, N-(3,4-dihydroxybenzyl)-2-(4-(2,6-dioxo-1,3-dipropyl-2,3,6,7-tetrahydro-1H-purin-8-yl)phenoxy)acetamide] | 24.4 |  | 27 ± 7.9 | 0.00165 | 66700 |  |  | 
11 | CCCn1c(=O)c2[nH]c(-c3ccc(OCC(=O)Nc4cc[nH]n4)cc3)nc2n(CCC)c1=O [Compound 6, 2-(4-(2,6-dioxo-1,3-dipropyl-2,3,6,7-tetrahydro-1H-purin-8-yl)phenoxy)-N-(1H-pyrazol-3-yl)acetamide] | 5480 |  |  |  |  |  |  | 
12 | CCCn1c(=O)c2[nH]c(-c3ccc(OCC(=O)N(CC(=O)OCC)CC(=O)OCC)cc3)nc2n(CCC)c1=O [Compound 11] |  |  |  |  |  |  |  | Ki (human A2BAR [1]; [10]): 112 nM
13 | CCCn1c(=O)c2[nH]c(-c3ccc(OCC(=O)N(Cc4ccccc4)Cc4ccccc4)cc3)nc2n(CCC)c1=O [Compound 27] |  |  |  |  |  |  |  | Ki (human A2BAR [1]; [10]): 120 nM
14 | CCCn1c(=O)c2[nH]c(-c3ccc(OCC(=O)NC4CC4)cc3)nc2n(CCC)c1=O [Compound 3, N-cyclopropyl-2-(4-(2,6-dioxo-1,3-dipropyl-2,3,6,7-tetrahydro-1H-purin-8-yl)phenoxy)acetamide] | 36.3 | 0.9 min and 0.9 ± 0.0 min |  | 0.0178 | 600000 | 10.7 ± 1.75 | 51.7 ± 19.6 | Ki (A2B adenosine receptor [8]): 36.6 ± 5.1 nM
15 | CCCn1c(=O)c2[nH]c(-c3ccc(OCC(=O)NCc4ccc(Br)cc4)cc3)nc2n(CCC)c1=O [Compound 22, N-(4-bromobenzyl)-2-(4-(2,6-dioxo-1,3-dipropyl-2,3,6,7-tetrahydro-1H-purin-8-yl)phenoxy)acetamide] | 5.73 |  | 6.5 ± 3.6 | 0.000717 | 117000 | 32.7 | 112 | Ki (A1 adenosine receptor [3]): 586 ± 250 nM; Ki (A2A adenosine receptor [5]): 26.1 ± 0.4 nM; Ki (A2B adenosine receptor [7]): 6.8 ± 0.8 nM; Ki (A3 adenosine receptor): 274 ± 56 nM
16 | CCCn1c(=O)c2[nH]c(-c3ccc(OCC(=O)Nc4ccc(C(F)(F)F)cc4)cc3)nc2n(CCC)c1=O [Compound 15] | 2.86 |  |  |  |  |  |  | kon (human A2BAR [2]; competing ligand at 1.0-fold IC50, […] [3H]PSB-603, up to 3 hr, 25 °C): Kinetics outside the range of the assay (see text)
17 | CCCn1c(=O)c2[nH]c(-c3ccc(OCC(=O)NC4CCCC4)cc3)nc2n(CCC)c1=O [Compound 5, N-cyclopentyl-2-(4-(2,6-dioxo-1,3-dipropyl-2,3,6,7-tetrahydro-1H-purin-8-yl)phenoxy)acetamide] | 16700 |  |  |  |  | 13.9 ± 1.8 | 19.1 ± 5.1 | Ki (A2B adenosine receptor [8]): 26.3 nM
18 | CCCn1c(=O)c2[nH]c(-c3ccc(OCC(=O)Nc4cnccn4)cc3)nc2n(CCC)c1=O [Compound 10, 2-(4-(2,6-dioxo-1,3-dipropyl-2,3,6,7-tetrahydro-1H-purin-8-yl)phenoxy)-N-(pyrazin-2-yl)acetamide] | 6950 |  |  |  |  |  |  | 
19 | CCCn1c(=O)c2[nH]c(-c3ccc(OCC(=O)NCc4ccccc4)cc3)nc2n(CCC)c1=O [Compound 19] |  |  |  |  |  | 5.02 | 25.9 | Ki (A1 adenosine receptor [3]): 54.7 ± 21.2 nM; Ki (A2A adenosine receptor [5]): 23.8 ± 5.7 nM
20 | CCCn1c(=O)c2[nH]c(-c3ccc(OCC(=O)Nc4ccc(C(C)=O)cc4)cc3)nc2n(CCC)c1=O [Compound 16] |  | 54 min and 54 ± 18 min | 1.7 ± 0.58 |  |  |  |  | Ki (human A2BAR [1]): 3.03 nM; koff (human A2BAR [2]): 0.000317 s⁻¹; kon (human A2BAR [2]): 183000 M⁻¹ s⁻¹
